Laboratory results from US7291600B2, “Non-T cell binding peptides and their uses” (priority 2002, dated 2007).
Several values for one entry are separate records, joined by “and”; a condition that tells them apart may be missing. Identical values can stand only once. Entries after “also recorded” stand apart in the source; their conditions may differ. No end group written: not given here. *: point of attachment. Myristoyl = CCCCCCCCCCCCCC(=O)*

Key:
[1] = tested on: T cell activation (L57.23 cell with 3.19 cell; Priess cell with 3838 cell); experiment: T cell activation assay: antigen presenting cells, peptide and T cell clones co-incubated; IL-2 in supernatant read by CTLL proliferation (MTT); type: cell-based; settings: FIG. 3; for effect (stimulation) on T cell activation compared with wild type CII peptide: peptide alone with antigen presenting cells and T cells, 48 hours
Text: Antigen polypeptides are expressed through antigen presenting cells and activate T cells, resulting in the production of inflammation factors in vivo, and further resulting in the typical pathologic changes of rheumatoid arthritis. In the experiment, the inhibition effects of non-T cell binding peptides on T cell activation were detected by measuring T cell proliferation and Interleukin (IL)-2 level. Two sets of systems of antigen presenting and T cell activation, which are recognized internationally, are used in the research.
Wherein one set of antigen presenting and T cell activation system is composed of L57.23 cell and 3.19 cell, and the other set of system is composed of Priess cell and 3838 cell. By comparing the difference in the effects of said seven non-T cell binding peptides on antigen presenting and T cell activation, non-T cell binding peptides which have significant inhibition effect(s) on T cell activation were screened.
Firstly, the antigen presenting cells, different non-T cell binding peptides (10 μg/ml) and corresponding T cells were added into the reaction system and co-incubated at 37° C. for 48 hours. The supernatant was obtained and added into well-grown IL-2 dependent cells (CTLL). The CTLL cell proliferation was detected by using titrazolium salt method (MTT). Thus the inhibition effects of non-T cell binding peptides on T cell activation were determined.

[2] = tested on: T cell activation (L57.23 cell with 3.19 cell; Priess cell with 3838 cell); experiment: as above; type: cell-based; settings: for inhibition of the T cell activation effects of wild type DRβ1 binding peptide: co-incubated with wild type peptide and T cell activation system, concentration dependent, FIG. 4
[3] = tested on: collagen-induced arthritis (CIA) in Wistar rats; experiment: Collagen-induced arthritis (CIA) induced by bovine CII, treated by subcutaneous peptide injection; type: in vivo; settings: for suppression / alleviation of arthritis in rats: CIA rats, result in words
Procedure: In the animal experiment protocol of the present invention, collagen-induced arthritis (CIA) in Wistar rats was induced by bovine CII. The non-T cell binding peptides of the present invention were used to treat the arthritis rats.
The experimental arthritis model used in the present invention is collagen-induced arthritis (CIA) which is recognized internationally. The experimental animals used were American Wistar rats, which belong to a blocking colony. They were cultured successfully by Wistar Institute of USA in 1907. They are among the species that were introduced into our country earliest and were used most widely. The rats used in this experiment were all cultured in the animal center of People's Hospital, Peking University (SPF degree II). The rats were cultured in the polyacylene cages cushioned by serrago. The lightness/darkness cycle was maintained as 12 h/12 h. The water and food were freely available to the rats. All the rats used in the experiment were male, 8-10 weeks of age, body weight 180±10 g. All the protocols related to animals in the experiment were in accordance with Chinese Experimental Animal Regulations.
The bovine type II collagen (catalogue number: C11188) was bought from Sigma Co. Ltd. It was dissolved in acetic acid to make a solution with the final concentration of 8 mg/ml. Then the solution was emulsified with complete Freund's adjuvant (Detroit, USA) of the equal volume. 100 μl of the emulsified solution was injected into the footpad of the right limb of each Wistar rat. The injection dose was […]. Thus the arthritis model of Wistar rats was successfully established.
The swelling of metatarsophalangeal joints and interphalangeal joints was found on all the rats about 15 days after the induction of arthritis in Wistar rats with CII. A 0-16 scale was used to evaluate the extent of arthritis. Each of the 4 paws was assigned a score using a 0-4 scale, wherein zero=no joint swelling, 1=swelling of one joint, 2=swelling of 2 joints, 3=swelling of 3 joints, and 4=swelling of 4 joints, which is the swelling of the whole paw. Four paws were scored respectively, and these scores were summed up to give a total score. Beginning 2 days after the immunization, the rats were subjected to an inspection every day until the experiment had been finished.
(§1) The arthritis rats were randomly divided into 4 groups from Day 4 to Day 7 after arthritis induced therein. There were 3 treatment groups and one control group. Each group consisted of 10 rats. Non-T cell binding peptide 267A was subcutaneously injected into the base of tail of each rat every 3 days. The peptides were dissolved in sterile distilled water before injection. The concentrations used in the 3 treatment groups were 100 μg/ml, 500 μg/ml and 1000 μg/ml respectively, 100 μl for each rat, and the control group received sterile distilled water only. The volume change of right feet was measured by water-expelling method every day. Using the aforementioned method of arthritis evaluation, the arthritis scores were given every day based on the number of joints with arthritis. The rats were killed 18 days after treatment. The peripheral blood was collected. The serum concentrations of the respective cytokines were detected using ELISA kits of TNFα and IL-2 (JingMei Biotech Co. Ltd, ShenZhen, P.R.C). In the meanwhile, the joints of the right limb were detached, fixed, decalcified, sectioned and subjected to HE staining.

[4] = tested on: TNFα; experiment: TNFα concentration in peripheral blood of CIA rats (ELISA); type: in vivo, Wistar rats
Procedure: as §1

[5] = tested on: collagen-induced arthritis (CIA) in Wistar rats; experiment: Collagen-induced arthritis (CIA) induced by bovine CII, treated by subcutaneous peptide injection; type: in vivo; settings: for number of swollen joints, Average: * significantly reduced compared with the control group (p < 0.01), control 6.2
[6] = 50 mg group, right hind foot, individual rats
[7] = Day 8, 10, 12 and 14, three treatment groups 100, 500, 1000 μg/ml, 100 μl s.c. every 3 days
[8] = 10 mg group, right hind foot, individual rats

For “FKGEQGAAGE (Myristoyl-FKGEQGAAGE) [Mut 269-270, amino-terminal linked to myristic acid]”, the “effect (stimulation) on T cell activation compared with wild type CII peptide” value (from here on “effect … compared with wild type CII peptide”) [1] was “none of polypeptides Mut 267-270, Mut 268-270, Mut 269-270, 269A and 270A has significant effect on T cell activation”.

“FKGEQGPAGE (Myristoyl-FKGEQGPAGE) [270A, amino-terminal linked to myristic acid]” was tested, and the “effect … compared with wild type CII peptide” value [1] was “none of polypeptides Mut 267-270, Mut 268-270, Mut 269-270, 269A and 270A has significant effect on T cell activation”.

In the case of “FKGEQAGAGE (Myristoyl-FKGEQAGAGE) [Mut 268-270, amino-terminal linked to myristic acid]”, the “effect … compared with wild type CII peptide” value [1] is reported as “none of polypeptides Mut 267-270, Mut 268-270, Mut 269-270, 269A and 270A has significant effect on T cell activation”.

With “wild type DRβ1 binding peptide: wild type CII263-272 polypeptide (F K G E Q G P K G E), contains the antigen epitope of Collagen type II (FKGEQGPKGE) [reference compound]” the “concentration of IL-2 in the supernatant” value ([1]; non-T cell binding peptides compared with wild type peptide, p<0.01) was “high concentration of IL-2” and the “stimulation of T cell proliferation” value ([2]; at 400, 200, 80, 40 and 20 μg/ml) was “able to stimulate T cell proliferation”.

For “FKGEGAGAGE (Myristoyl-FKGEGAGAGE) [Mut 267-270, amino-terminal linked to myristic acid]”, the “effect … compared with wild type CII peptide” value [1] was “none of polypeptides Mut 267-270, Mut 268-270, Mut 269-270, 269A and 270A has significant effect on T cell activation”, the “inhibition of the T cell activation effects of wild type DRβ1 binding peptide” value [2] was “significant effects” and the “suppression / alleviation of arthritis in rats” value [3] was “significant effects”.

With “FKGEAGPKGE (Myristoyl-FKGEAGPKGE) [267A, amino-terminal linked to myristic acid]” the “concentration of TNFα in peripheral blood vs control group” value ([4]; 100 μg/ml treated group, p<0.05, FIG. 7) was “significantly lower”, the “concentration of TNFα in peripheral blood vs control group” value ([4]; the other two treatment groups (500 and 1000 μg/ml)) was “No significant variety” and the “inhibition of the T cell activation effects of wild type DRβ1 binding peptide” value [2] was “significant effects”. The “number of swollen joints” value [3, 6] was 4 (2×) and 6 (2×) and 2 and 1 (3×) and 3 (2×), the “swelling of the right feet” value ([3]; 3 treatment groups, within the first 2 weeks after treatment) was “alleviated” and the “difference among the 3 treatment groups in right foot swelling ratios and arthritis scores” value ([3]; 100, 500 and 1000 μg/ml groups, Day 8, 10, 12 and 14) was “no significant difference”. The “suppression / alleviation of arthritis in rats” value [3] was “significant effects; also recorded: significantly suppress arthritis in rats and alleviate the swelling of joints, and shorten the disease course; also recorded: significantly alleviated”, the “arthritis score vs control group” value [3, 7] was “significantly lower” and the “swelling ratio of right feet vs control group” value [3, 7] was “significantly lower”. The “remission ratio of CIA vs control group” value ([3]; three treatment groups, Day 8 and Day 16 after treatment, p<0.05) was “remission ratio(s) of CIA in the control group are significantly lower than that in the three treatment groups; also recorded: significantly higher”, the “number of swollen joints, Average” value ([5]; 10 mg group average) was 3.15* and the Hind foot volume [5, 8] was 1.2 ml (2×) and 1.5 ml and 1.4 ml and 1.3 ml (5×) and 1.1 ml. The “number of swollen joints” value [5, 8] was 2 (2×) and 4 (3×) and 3 (2×) and 1 (2×) and 6, the “number of swollen joints, Average” value ([5]; 50 mg group average) was 3.25* and the Hind foot volume [5, 6] was 1.4 ml (5×) and 1.7 ml and 1.3 ml and 1.1 ml and 1.6 ml (2×).

With “FKGEQGAKGE (Myristoyl-FKGEQGAKGE) [269A, amino-terminal linked to myristic acid]” the “effect … compared with wild type CII peptide” value [1] was “none of polypeptides Mut 267-270, Mut 268-270, Mut 269-270, 269A and 270A has significant effect on T cell activation”.
